From ChEMBL document CHEMBL5729557, “5-membered heteroaryl carboxamide compounds for treatment of HBV” (2023)
pEC50: −log10 of the molar value.

Test: Assay Measuring Activity of Test Compounds on Viral Production from HepAD38 Cells: HepAD38 cells grown in a T-150 flask (Corning, cat #: 430825) with Growth Medium (DMEM/F12 (1:1) (Hyclone, cat #: SH30023.02), 1× Pen/Strep (Invitrogen, cat #: 15140-122), 10% FBS (Tissue Culture Biologics, cat #: 101), 250 μg/mL G418 (Alfa Aesar, cat #: J62671), 1 μg/mL Tetracycline (Teknova, cat #: T3320)) were detached with 0.25% trypsin-EDTA to (Invitrogen, cat #: 25200-056). Tetracycline-free treatment medium (15 mL DMEM/F12 (1:1) 1× Pen/step, with 2% FBS, Tet-system approved (Clontech, cat #: 631106) were then added to mix, transferred into a 50 ml conical tube (Falcon, cat #: 21008-918,) and spun at 1300 rpm for 5 min. Pelleted cells were then re-suspended/washed with 50 mL of 1×DPBS (Invitrogen, cat #: 14190-136) 2 times and 50 mL treatment medium twice. HepAD38 cells were then re-suspended with 10 mL of treatment medium, syringed and counted. Wells of 96-well clear bottom TC plate (Corning, cat #: 3904,) were seeded at 50,000 cells/well in 180 μL of treatment medium, and 20 μL of either 10% DMSO (Sigma, cat #: D4540) as controls or a 10× solution of test compounds in 10% DMSO in treatment media was added for a final compound concentration starting at 10 μM, and plates were incubated in 5% CO2 incubator at 37° C. for 5 days.Subsequently viral load production was assayed by quantitative PCR (qPCR) of the HBV core sequence. PCR reaction mixture containing forward primers HBV-f 5′-CTGTGCCTTGGGTGGCTTT-3′ (IDT DNA), Reverse primers HBV-r 5′-[…]-3′ (IDT DNA), Fluorescent TaqMan™ Probes HBV-probe 5′-FAM/AGCTCCAAA/ZEN/[…]/3IABkFQ-3′ (IDT DNA), 10 μL/well of PerfeCTa® qPCR ToughMix® (Quanta Biosciences, Cat #: 95114-05K), and 6 μL/well of DEPC water (Alfa Aesar, cat #: J62087) was prepared. […] of supernatant was added to 16 μL of the reaction mixture in a qPCR plate (Applied Biosytems, Cat #: 4309849), sealed with a film (Applied Biosystems, Cat #: 4311971), centrifuged for a few seconds, and subsequently run on an Applied Biosystems VIIA7. The PCR mixture was incubated at 45° C. for 5 min, then 95° C. for 10 min, followed by 40 cycles of 10 seconds at 95° C. and 20 seconds at 60° C. Viral load was quantified against known HBV DNA standards by using ViiA™ 7 Software. Viral load in the supernatant from wells with treated cells were compared against viral load in supernatant from DMSO control wells (>3 per plate). Cell viability assay was performed with CellTiter-Glo Luminescent Cell Viability Assay (Promega, cat #: G7573) with modification. Mixed appropriate amount of CellTiter-Glo (CTG) 1×DPBS in a 1:1 ratio, added 100 uL of the mixture to each well followed completely removal of all supernatant in each well without touching cell surface. Incubated the plate at room temperature for 10 min on an orbital shaker, and then read the plate with a plate reader (TECAN M1000 or Envision).
Settings: not given
In the case of COc1ccc([C@@H]2CC[C@H](c3nn(C)c(N)c3C(=O)Nc3ccc(F)c(Cl)c3)C2)cc1, the EC50 was < 100 nM and in the range around 300 nM.

Same assay, conditions: HePAD38
In the case of Cn1nc([C@@H]2CC[C@H](c3ccccc3)C2)c(C(=O)Nc2ccc(F)c(Cl)c2)c1N, the pEC50 was > 7.00.
In the case of Cn1nc(C2CC3CC(n4cccn4)CC3C2)c(C(=O)Nc2ccc(F)c(Cl)c2)c1N (stereo not given), the pEC50 was > 7.00.
With CC(C)N1CC2CC(c3nn(C)c(N)c3C(=O)Nc3ccc(F)c(Cl)c3)CC2C1 (stereo not given) the EC50 was “in the range around 5250 nM”.
In the case of Cn1nc(C2CC3CC(C#N)CC3C2)c(C(=O)Nc2ccc(F)c(Cl)c2)c1N (stereo not given), the pEC50 was > 7.00.
For Cn1nc([C@@H]2CC3CC(O)(CN4CCCCC4)C[C@H]3C2)c(C(=O)Nc2ccc(F)c(Cl)c2)c1N (stereo not given in full), the EC50 was “in the range around 300 nM”.
With CCOC(=O)CC1CC2CC(c3nn(C)c(N)c3C(=O)Nc3ccc(F)c(Cl)c3)CC2C1 (stereo not given) the pEC50 was > 7.00.
In the case of CCC1OCC2(CC3C[C@H](c4nn(C)c(N)c4C(=O)Nc4ccc(F)c(Cl)c4)C[C@@H]3C2)O1 (stereo not given in full), the pEC50 was > 7.00.
With Cn1nc(C2CC3CC4(CC3C2)OCCO4)c(C(=O)Nc2ccc(F)c(Cl)c2)c1N (stereo not given) the pEC50 was > 7.00.
For Cn1nc(C2CC3CC(N4CCCC4)CC3C2)c(C(=O)Nc2ccc(F)c(Cl)c2)c1N (stereo not given), the pEC50 was > 7.00.
For Cn1nc(C2CC3CC(N4CCNC(=O)C4)CC3C2)c(C(=O)Nc2ccc(F)c(C#N)c2)c1N (stereo not given), the pEC50 was > 7.00.
With Cn1nc(C2CC3CC(N)CC3C2)c(C(=O)Nc2ccc(F)c(Cl)c2)c1N (stereo not given) the EC50 was “in the range around 300 nM”.
With Cn1nc(C2CC3CC([S+](C)[O-])CC3C2)c(C(=O)Nc2ccc(F)c(Cl)c2)c1N (stereo not given) the pEC50 was > 7.00.
For Cn1nc([C@H]2CC[C@H](c3ccccc3)C2)c(C(=O)Nc2ccc(F)c(Cl)c2)c1N, the EC50 was “in the range around 5250 nM”.
With Cn1nc([C@@H]2CC3CC(O)(CS(=O)(=O)C4CC4)C[C@@H]3C2)c(C(=O)Nc2ccc(F)c(Cl)c2)c1N (stereo not given in full) the pEC50 was > 7.00.
